Experimental data published in PubChem BioAssay (NCI).
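Exposure lasted 48 hours, with cells grown in 96-well plates and compounds tested at five concentrations. Here, GI50 denotes the concentration required for 50% inhibition of growth. The concentration for full growth arrest is given as TGI.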

Legend:
Assay in all cases: NCI tumour cell line growth inhibition, 48 h
786-0 renal = system: 786-0 renal
A498 renal = system: A498 renal
A549 NSCLC = system: A549 NSCLC
ACHN renal = system: ACHN renal
BT-549 breast = system: BT-549 breast
CAKI-1 renal = system: CAKI-1 renal
CCRF-CEM leukemia = system: CCRF-CEM leukemia
COLO 205 colon = system: COLO 205 colon
DU-145 prostate = system: DU-145 prostate
EKVX NSCLC = system: EKVX NSCLC
HCC-2998 colon = system: HCC-2998 colon
HCT-116 colon = system: HCT-116 colon
HCT-15 colon = system: HCT-15 colon
HOP-62 NSCLC = system: HOP-62 NSCLC
HS 578T breast = system: HS 578T breast
HT29 colon = system: HT29 colon
IGROV1 ovarian = system: IGROV1 ovarian
KM12 colon = system: KM12 colon
LOX IMVI melanoma = system: LOX IMVI melanoma
M14 melanoma = system: M14 melanoma
MCF7 breast = system: MCF7 breast
MDA-MB-231 breast = system: MDA-MB-231 breast
MDA-MB-435 = system: MDA-MB-435
NCI-H226 lung = system: NCI-H226 lung
NCI-H23 lung = system: NCI-H23 lung
NCI-H460 lung = system: NCI-H460 lung

**Q.** Which results are given for C=C1C(=O)O[C@@H]2C1C[C@@H](O)/C(C)=C/C/C=C(\C)CCC[C@H](C)[C@H]2OC(C)=O (some centres not stated)?
**A.** GI50 (786-0 renal): 18.7 µM; TGI (786-0 renal): 34.3 µM; GI50 (A498 renal): 54 µM; TGI (A498 renal): > 100 µM; GI50 (A549 NSCLC): 35.8 µM; TGI (A549 NSCLC): > 100 µM; GI50 (ACHN renal): 21.3 µM; TGI (ACHN renal): 42.6 µM; GI50 (BT-549 breast): 20 µM; TGI (BT-549 breast): 39.1 µM; GI50 (CAKI-1 renal): 32.8 µM; TGI (CAKI-1 renal): > 100 µM; GI50 (CCRF-CEM leukemia): 21.2 µM; TGI (CCRF-CEM leukemia): 40.2 µM; GI50 (COLO 205 colon): 40.4 µM; TGI (COLO 205 colon): > 100 µM; GI50 (DU-145 prostate): 20.4 µM; TGI (DU-145 prostate): 45.4 µM; GI50 (EKVX NSCLC): 23.8 µM; TGI (EKVX NSCLC): 59.1 µM; GI50 (HCC-2998 colon): 31.7 µM; TGI (HCC-2998 colon): > 100 µM; GI50 (HCT-116 colon): 14.1 µM; TGI (HCT-116 colon): 27 µM; GI50 (HCT-15 colon): 22.2 µM; TGI (HCT-15 colon): 51.9 µM; GI50 (HOP-62 NSCLC): 45.4 µM; TGI (HOP-62 NSCLC): > 100 µM; GI50 (HS 578T breast): 29.1 µM; TGI (HS 578T breast): 76 µM; GI50 (HT29 colon): 40 µM; TGI (HT29 colon): > 100 µM; GI50 (IGROV1 ovarian): 8.84 µM; TGI (IGROV1 ovarian): 32.7 µM; GI50 (KM12 colon): 20.8 µM; TGI (KM12 colon): 41.7 µM; GI50 (LOX IMVI melanoma): 21.9 µM; TGI (LOX IMVI melanoma): 47.2 µM; GI50 (M14 melanoma): 19.4 µM; TGI (M14 melanoma): 44.1 µM; GI50 (MCF7 breast): 20 µM; TGI (MCF7 breast): 46.2 µM; GI50 (MDA-MB-231 breast): 24.3 µM; TGI (MDA-MB-231 breast): 49.6 µM; GI50 (MDA-MB-435): 24.4 µM; TGI (MDA-MB-435): 58 µM; GI50 (NCI-H226 lung): 23.2 µM; TGI (NCI-H226 lung): 44.3 µM; GI50 (NCI-H23 lung): 27.1 µM; TGI (NCI-H23 lung): 86.2 µM; GI50 (NCI-H460 lung): > 100 µM; TGI (NCI-H460 lung): > 100 µM
